Source: article PMC9653173, “Trotabresib (CC-90010) in combination with adjuvant temozolomide or concomitant temozolomide plus radiotherapy in patients with newly diagnosed glioblastoma” (Neuro-Oncology Advances, 2022)
Values joined by “and” are separate entries in the source; they are usually repeats but may differ in a detail not shown here. Equal values may be shown once. Read-outs that look alike come from different tables or passages of the source.

Columns and labels:
MYC = details: in vitro; ref Bristol Myers Squibb; data on file; cited from earlier work
[1] = test system: patients with newly diagnosed glioblastoma; details: for TEAEs leading to discontinuation of the labelled study drug(s), patients: February 20, 2022 cutoff
From the text: The phase Ib, dose-escalation part of this study explored escalating oral doses of trotabresib in combination with TMZ in the adjuvant setting and with TMZ plus RT in the concomitant setting. […] Dose-escalation decisions were made by the safety review committee, based on all available safety, pharmacokinetics, pharmacodynamics, and preliminary efficacy information, and a calculation of risk assessment using a Bayesian logistic regression model.
The primary endpoints of the study were to determine the safety and tolerability, maximum tolerated dose, and/or recommended phase II dose (RP2D) of trotabresib in combination with TMZ as adjuvant therapy, and with TMZ and RT as concomitant therapy. […] Trotabresib pharmacodynamics was an exploratory endpoint.
Adverse events (AEs) were classified using the Medical Dictionary for Regulatory Activities v18.1 or higher system organ class and preferred term. Severity of AEs was graded based on the patient’s symptoms according to the National Cancer Institute Common Terminology Criteria for Adverse Events v5.0.[35] Dose-limiting toxicities (DLTs) were defined as any of the toxicities described in Supplementary Table S2 occurring within the DLT assessment period (cycle 1 [28 days]), unless the event could clearly be determined to be unrelated to trotabresib. Screening MRI scans were performed after surgical resection and within 28 days (+3 days) prior to initiation of study treatment. Subsequent tumor assessments by MRI or CT were performed at week 10 during the concomitant treatment period and at the end of every other treatment cycle from cycle 2 onwards during the adjuvant and trotabresib monotherapy treatment periods. Best overall response (BOR) was evaluated as complete response (CR), partial response (PR), SD, progressive disease (PD), or not evaluable, according to Response Assessment in Neuro-Oncology criteria for high-grade glioma.[36] Plasma samples were collected during the first treatment cycle for investigation of trotabresib pharmacokinetics and pharmacodynamics. Plasma pharmacokinetic parameters assessed included peak plasma concentration (Cmax), time to peak plasma concentration (tmax), area under the plasma concentration–time curve (AUC), and terminal half-life (t½). Pharmacodynamic markers assessed included blood levels of CCR1 and HEXIM1 mRNA, which are established markers of BET inhibitor target engagement.[17],[22],[37],[38]

[2] = adjuvant overall (N = 18), related to labelled drug(s)

Cn1cc(-c2cc(S(C)(=O)=O)ccc2OCC2CC2)c2ccccc2c1=O [Trotabresib]
30 mg: Recommended phase II dose (RP2D) ([1]; adjuvant (+ TMZ) and concomitant (+ TMZ + RT) settings, 4 days on/24 days off)
9 (50) n (%): Any TRAE, grade 3/4 [1, 2] | Nausea TRAE, any grade [1, 2]
1 (6) n (%): ALT increased TRAE, any grade [1, 2] | AST increased TRAE, any grade [1, 2] | Asthenia TRAE, grade 3/4 [1, 2] | Diarrhea TRAE, grade 3/4 [1, 2] | Hyperbilirubinemia TRAE, grade 3/4 [1, 2] | Hyperglycemia TRAE, grade 3/4 [1, 2] | Intracranial hemorrhage TRAE, any grade [1, 2] | Intracranial hemorrhage TRAE, grade 3/4 [1, 2] | Leukopenia TRAE, any grade [1, 2] | Lymphopenia TRAE, grade 3/4 [1, 2]
16 (89) n (%): Any TRAE, any grade [1, 2]
7 (39%) n (%): Rash and other skin-related TRAEs attributed to trotabresib only ([1]; adjuvant overall)
2 (11) n (%): Dyspepsia TRAE, any grade [1, 2] | Fatigue TRAE, any grade [1, 2] | Hypophosphatemia TRAE, any grade [1, 2] | Hypotension TRAE, any grade [1, 2] | Insomnia TRAE, any grade [1, 2] | Lymphopenia TRAE, any grade [1, 2]
downregulated in vitro: MYC expression (MYC)
1 (14) 1 (14) 1 (14) n (%): TEAEs leading to discontinuation of the labelled study drug(s), patients ([1]; adjuvant 45 mg (n = 7))
3 (17) n (%): Acneiform dermatitis TRAE, any grade [1, 2] | Neutropenia TRAE, grade 3/4 [1, 2] | Pruritus TRAE, any grade [1, 2]
7 (39) n (%): Asthenia TRAE, any grade [1, 2]
2 (11) 2 (11) 2 (11) n (%): TEAEs leading to discontinuation of the labelled study drug(s), patients ([1]; adjuvant overall (N = 18))
1 (6) 1 (6) 1 (6) n (%): TRAEs leading to discontinuation of TMZ, related to labelled drug(s) ([1]; adjuvant overall (N = 18)) | TRAEs leading to discontinuation of any study drug, related to labelled drug(s) ([1]; adjuvant overall (N = 18)) | TRAEs leading to discontinuation of trotabresib, related to labelled drug(s) ([1]; adjuvant overall (N = 18))
5 (28) n (%): Neutropenia TRAE, any grade [1, 2] | Rash TRAE, any grade [1, 2]
1 (17) 1 (17) 1 (17) n (%): TRAEs leading to discontinuation of TMZ, related to labelled drug(s) ([1]; adjuvant 30 mg (n = 6)) | TRAEs leading to discontinuation of any study drug, related to labelled drug(s) ([1]; adjuvant 30 mg (n = 6)) | TRAEs leading to discontinuation of trotabresib, related to labelled drug(s) ([1]; adjuvant 30 mg (n = 6)) | TEAEs leading to discontinuation of the labelled study drug(s), patients ([1]; adjuvant 30 mg (n = 6))
6 (33) n (%): Decreased appetite TRAE, any grade [1, 2] | Dysgeusia TRAE, any grade [1, 2] | Hyperbilirubinemia TRAE, any grade [1, 2]
0 n (%): ALT increased TRAE, grade 3/4 [1, 2] | AST increased TRAE, grade 3/4 [1, 2] | Acneiform dermatitis TRAE, grade 3/4 [1, 2] | Anemia TRAE, grade 3/4 [1, 2] | Blood bilirubin increased TRAE, any grade [1, 2] | Blood bilirubin increased TRAE, grade 3/4 [1, 2] | Decreased appetite TRAE, grade 3/4 [1, 2] | Dysgeusia TRAE, grade 3/4 [1, 2] | Dyspepsia TRAE, grade 3/4 [1, 2] | Fatigue TRAE, grade 3/4 [1, 2] | Hypophosphatemia TRAE, grade 3/4 [1, 2] | Hypotension TRAE, grade 3/4 [1, 2] | Insomnia TRAE, grade 3/4 [1, 2] | Leukopenia TRAE, grade 3/4 [1, 2] | Nausea TRAE, grade 3/4 [1, 2] | Pruritus TRAE, grade 3/4 [1, 2] | Rash TRAE, grade 3/4 [1, 2] | Seizure TRAE, any grade [1, 2] | Seizure TRAE, grade 3/4 [1, 2]
11 (61) n (%): Diarrhea TRAE, any grade [1, 2]
10 (56%) n (%) and 10 (56) n (%): Thrombocytopenia TRAE, any grade [1, 2]
4 (22) n (%): Anemia TRAE, any grade [1, 2] | Hyperglycemia TRAE, any grade [1, 2]
